Assay results from publication PMC10382351, “In vivo evaluation of a novel ^18F-labeled PET radioligand for translocator protein 18 kDa (TSPO) in monkey brain” (European Journal of Nuclear Medicine and Molecular Imaging, 2023).
Where “and” joins values, the source holds several entries; their conditions need not be identical. Equal entries are not always repeated. Entries after “also recorded” stand apart in the source; their conditions may differ.

System: 18 kDa translocator protein (TSPO)
Assay: PET imaging of [^18F]SF51 in rhesus monkey brain with kinetic analysis (2TCM, Logan plot, Lassen plot)
Type: in vivo
Settings: for Estimated K1: three rhesus monkeys; for VT/fP using Logan plot: n=3
Method: Electrocardiogram, body temperature, heart rate, and respiratory rate measures were monitored throughout the scan.
Brain PET imaging was performed using a microPET Focus 220 camera (Siemens Medical Solution; Knoxville, TN). […] For baseline experiments, 20 mL of a vehicle containing 20% (2-hydroxypropyl)-β-cyclodextrin and two equivalents of HCl were injected intravenously 10 min before radioligand administration. For the blocked experiment, PK11195 was dissolved in vehicle and then injected intravenously (5 mg/kg) 10 min before radioligand injection for all three monkeys. One of the three monkeys underwent an additional blocked scan with 5 mg/kg of PBR28, performed using a MultiScan™ LFER 150 PET/CT (Mediso USA, LLC; Arlington, VA). The interval between baseline and blocked imaging sessions was at least three weeks in order to allow the monkey to recover from arterial blood sampling. Focus 220 PET images were histogrammed into 30 time frames (6 × 30, 3 × 60, 2 × 120, 4 × 300, and 15 × 600 s) and reconstructed using Fourier rebinning plus a two-dimensional filtered back-projection with scatter and attenuation correction. MultiScan LFER PET images were reconstructed with 3D-OSEM with two iterations and nine subsets and were corrected for scatter and attenuation.
PET images were co-registered to a standardized monkey MRI template using PMOD software (PMOD version 4.1, PMOD Technologies Ltd.; Zurich, Switzerland). Thirty-three predefined regions of interest (ROIs) from a monkey brain template were applied to the co-registered PET images to obtain regional time-activity curves (Supplementary Table S2). Brain uptake was expressed as standardized uptake value (SUV), which normalizes for injected radioactivity and body weight. Using the brain time-activity curves and the radiometabolite-corrected arterial input function, the total VT was derived from a two-tissue compartment model (2TCM). Receptor occupancy by PK11195 and nondisplaceable distribution volume (VND/fP) of [^18F]SF51 were determined by an axes-transformed Lassen plot, where the y-axis reports the difference in VT between the baseline and the blocked scans, corrected by the respective fp values, and the x-axis reports the values at baseline (VTbase/fPbase).

Compound: CC[C@@H](C)N(C)C(=O)c1nc(-c2cccc([18F])c2)c2ccccc2n1 [[^18F]SF51]
- VT/fP (Baseline, Amygdala, 2TCM, n = 3): 242 mL·cm^−3
- Estimated K1 (Baseline, Amygdala, 2TCM): 0.29 mL·cm^-3·min^-1
- VT/fP using Logan plot (Baseline, Amygdala): 229 mL·cm^-3
- VT/fP (Baseline, Amygdala, one monkey (PBR28 experiment)): 284 mL·cm^-3
- VT/fP (Baseline, Cerebellum, 2TCM, n = 3): 179 mL·cm^−3
- Estimated K1 (Baseline, Cerebellum, 2TCM): 0.34 mL·cm^-3·min^-1
- VT/fP using Logan plot (Baseline, Cerebellum): 172 mL·cm^-3
- VT/fP (Baseline, Cerebellum, one monkey (PBR28 experiment)): 208 mL·cm^-3
- VT/fP (Baseline, Cingulate Cortex, 2TCM, n = 3): 218 mL·cm^−3
- Estimated K1 (Baseline, Cingulate Cortex, 2TCM): 0.30 mL·cm^-3·min^-1
- VT/fP using Logan plot (Baseline, Cingulate Cortex): 208 mL·cm^-3
- VT/fP (Baseline, Cingulate Cortex, one monkey (PBR28 experiment)): 260 mL·cm^-3
- VT/fP (Baseline, Frontal Cortex, 2TCM, n = 3): 201 mL·cm^−3
- Estimated K1 (Baseline, Frontal Cortex, 2TCM): 0.30 mL·cm^-3·min^-1
- VT/fP using Logan plot (Baseline, Frontal Cortex): 192 mL·cm^-3
- VT/fP (Baseline, Frontal Cortex, one monkey (PBR28 experiment)): 241 mL·cm^-3
- VT/fP (Baseline, Hippocampus, 2TCM, n = 3): 220 mL·cm^−3
- Estimated K1 (Baseline, Hippocampus, 2TCM): 0.33 mL·cm^-3·min^-1
- VT/fP using Logan plot (Baseline, Hippocampus): 211 mL·cm^-3
- VT/fP (Baseline, Hippocampus, one monkey (PBR28 experiment)): 253 mL·cm^-3
- VT/fP (Baseline, Insula, 2TCM, n = 3): 224 mL·cm^−3
- Estimated K1 (Baseline, Insula, 2TCM): 0.35 mL·cm^-3·min^-1
- VT/fP using Logan plot (Baseline, Insula): 214 mL·cm^-3
- VT/fP (Baseline, Insula, one monkey (PBR28 experiment)): 264 mL·cm^-3
- VT/fP (Baseline, Occipital Cortex, 2TCM, n = 3): 183 mL·cm^−3
- Estimated K1 (Baseline, Occipital Cortex, 2TCM): 0.31 mL·cm^-3·min^-1
- VT/fP using Logan plot (Baseline, Occipital Cortex): 175 mL·cm^-3
- VT/fP (Baseline, Occipital Cortex, one monkey (PBR28 experiment)): 217 mL·cm^-3
- VT/fP (Baseline, Parietal Cortex, 2TCM, n = 3): 202 mL·cm^−3
- Estimated K1 (Baseline, Parietal Cortex, 2TCM): 0.30 mL·cm^-3·min^-1
- VT/fP using Logan plot (Baseline, Parietal Cortex): 193 mL·cm^-3
- VT/fP (Baseline, Parietal Cortex, one monkey (PBR28 experiment)): 246 mL·cm^-3
- VT/fP (Baseline, Striatum, 2TCM, n = 3): 225 mL·cm^−3
- Estimated K1 (Baseline, Striatum, 2TCM): 0.38 mL·cm^-3·min^-1
- VT/fP using Logan plot (Baseline, Striatum): 215 mL·cm^-3
- VT/fP (Baseline, Striatum, one monkey (PBR28 experiment)): 266 mL·cm^-3
- VT/fP (Baseline, Temporal Cortex, 2TCM, n = 3): 209 mL·cm^−3
- Estimated K1 (Baseline, Temporal Cortex, 2TCM): 0.30 mL·cm^-3·min^-1
- VT/fP using Logan plot (Baseline, Temporal Cortex): 201 mL·cm^-3
- VT/fP (Baseline, Temporal Cortex, one monkey (PBR28 experiment)): 241 mL·cm^-3
- VT/fP (Baseline, Thalamus, 2TCM, n = 3): 218 mL·cm^−3
- Estimated K1 (Baseline, Thalamus, 2TCM): 0.35 mL·cm^-3·min^-1
- VT/fP using Logan plot (Baseline, Thalamus): 208 mL·cm^-3
- VT/fP (Baseline, Thalamus, one monkey (PBR28 experiment)): 259 mL·cm^-3
- VT/fP (Baseline, Whole Brain, 2TCM, n = 3): 203 ± 15 mL·cm^−3 and 203 mL·cm^−3
- Estimated K1 (Baseline, Whole Brain, 2TCM): 0.31 mL·cm^-3·min^-1
- VT/fP using Logan plot (Baseline, Whole Brain): 194 mL·cm^-3
- VT/fP (Baseline, Whole Brain, one monkey (PBR28 experiment)): 240 mL·cm^-3
- VT/fP (Blocked (PK11195 5 mg/kg i.v.), Amygdala, 2TCM, n = 3): 23 mL·cm^−3
- VT/fP (Blocked (PK11195 5 mg/kg i.v.), Cerebellum, 2TCM, n = 3): 26 mL·cm^−3
- VT/fP (Blocked (PK11195 5 mg/kg i.v.), Cingulate Cortex, 2TCM, n = 3): 25 mL·cm^−3
- VT/fP (Blocked (PK11195 5 mg/kg i.v.), Frontal Cortex, 2TCM, n = 3): 26 mL·cm^−3
- VT/fP (Blocked (PK11195 5 mg/kg i.v.), Hippocampus, 2TCM, n = 3): 21 mL·cm^−3
- VT/fP (Blocked (PK11195 5 mg/kg i.v.), Insula, 2TCM, n = 3): 23 mL·cm^−3
- VT/fP (Blocked (PK11195 5 mg/kg i.v.), Occipital Cortex, 2TCM, n = 3): 23 mL·cm^−3
- VT/fP (Blocked (PK11195 5 mg/kg i.v.), Parietal Cortex, 2TCM, n = 3): 24 mL·cm^−3
- VT/fP (Blocked (PK11195 5 mg/kg i.v.), Striatum, 2TCM, n = 3): 26 mL·cm^−3
- VT/fP (Blocked (PK11195 5 mg/kg i.v.), Temporal Cortex, 2TCM, n = 3): 22 mL·cm^−3
- VT/fP (Blocked (PK11195 5 mg/kg i.v.), Thalamus, 2TCM, n = 3): 27 mL·cm^−3
- VT/fP (Blocked (PK11195 5 mg/kg i.v.), Whole Brain, 2TCM, n = 3): 24 mL·cm^−3
- Estimated K1 (Blocked (PK11195), Amygdala, 2TCM): 0.38 mL·cm^-3·min^-1
- VT/fP using Logan plot (Blocked (PK11195), Amygdala): 23 mL·cm^-3
- Estimated K1 (Blocked (PK11195), Cerebellum, 2TCM): 0.62 mL·cm^-3·min^-1
- VT/fP using Logan plot (Blocked (PK11195), Cerebellum): 25 mL·cm^-3
- Estimated K1 (Blocked (PK11195), Cingulate Cortex, 2TCM): 0.34 mL·cm^-3·min^-1
- VT/fP using Logan plot (Blocked (PK11195), Cingulate Cortex): 24 mL·cm^-3
- Estimated K1 (Blocked (PK11195), Frontal Cortex, 2TCM): 0.36 mL·cm^-3·min^-1
- VT/fP using Logan plot (Blocked (PK11195), Frontal Cortex): 25 mL·cm^-3
- Estimated K1 (Blocked (PK11195), Hippocampus, 2TCM): 0.48 mL·cm^-3·min^-1
- VT/fP using Logan plot (Blocked (PK11195), Hippocampus): 21 mL·cm^-3
- Estimated K1 (Blocked (PK11195), Insula, 2TCM): 0.37 mL·cm^-3·min^-1
- VT/fP using Logan plot (Blocked (PK11195), Insula): 23 mL·cm^-3
- Estimated K1 (Blocked (PK11195), Occipital Cortex, 2TCM): 0.40 mL·cm^-3·min^-1
- VT/fP using Logan plot (Blocked (PK11195), Occipital Cortex): 22 mL·cm^-3
- Estimated K1 (Blocked (PK11195), Parietal Cortex, 2TCM): 0.35 mL·cm^-3·min^-1
- VT/fP using Logan plot (Blocked (PK11195), Parietal Cortex): 23 mL·cm^-3
- Estimated K1 (Blocked (PK11195), Striatum, 2TCM): 0.65 mL·cm^-3·min^-1
- VT/fP using Logan plot (Blocked (PK11195), Striatum): 25 mL·cm^-3
- Estimated K1 (Blocked (PK11195), Temporal Cortex, 2TCM): 0.36 mL·cm^-3·min^-1
- VT/fP using Logan plot (Blocked (PK11195), Temporal Cortex): 22 mL·cm^-3
- Estimated K1 (Blocked (PK11195), Thalamus, 2TCM): 0.50 mL·cm^-3·min^-1
- VT/fP using Logan plot (Blocked (PK11195), Thalamus): 26 mL·cm^-3
- Estimated K1 (Blocked (PK11195), Whole Brain, 2TCM): 0.41 mL·cm^-3·min^-1
- VT/fP using Logan plot (Blocked (PK11195), Whole Brain): 24 mL·cm^-3
- VT/fP (Blocked, PBR28 pre-blockade (5 mg/kg), Amygdala, one monkey): 9 mL·cm^-3
- VT/fP (Blocked, PBR28 pre-blockade (5 mg/kg), Cerebellum, one monkey): 10 mL·cm^-3
- VT/fP (Blocked, PBR28 pre-blockade (5 mg/kg), Cingulate Cortex, one monkey): 10 mL·cm^-3
- VT/fP (Blocked, PBR28 pre-blockade (5 mg/kg), Frontal Cortex, one monkey): 10 mL·cm^-3
- VT/fP (Blocked, PBR28 pre-blockade (5 mg/kg), Hippocampus, one monkey): 9 mL·cm^-3
- VT/fP (Blocked, PBR28 pre-blockade (5 mg/kg), Insula, one monkey): 10 mL·cm^-3
- VT/fP (Blocked, PBR28 pre-blockade (5 mg/kg), Occipital Cortex, one monkey): 10 mL·cm^-3
- VT/fP (Blocked, PBR28 pre-blockade (5 mg/kg), Parietal Cortex, one monkey): 10 mL·cm^-3
- VT/fP (Blocked, PBR28 pre-blockade (5 mg/kg), Striatum, one monkey): 10 mL·cm^-3
- VT/fP (Blocked, PBR28 pre-blockade (5 mg/kg), Temporal Cortex, one monkey): 9 mL·cm^-3
- VT/fP (Blocked, PBR28 pre-blockade (5 mg/kg), Thalamus, one monkey): 12 mL·cm^-3
- VT/fP (Blocked, PBR28 pre-blockade (5 mg/kg), Whole Brain, one monkey): 10 mL·cm^-3
- VND/fP (x-intercept of the regression lines) (Lassen plot, monkey brain, n = 3): 27 ± 11 mL· cm^−3
- Increase of K1 in blocked scans compared to baseline scans (all regions, PK11195): about 30%
- x-intercept of Lassen plot (VND/fP) (mean ± SD, n = 3): 27 ± 11
- Decrease of VT/fP (binding displaced) after blockade with PK11195 (monkey brain, PK11195 5 mg/kg i.v.): ~ 90%
- Mean SUV peak in brain after pre-blockade (monkey brain, after 5 mg/kg PK11195, n = 3): 3.0 ± 0.5 SUV
- Brain activity relative to the peak (monkey brain, baseline, at 180 min): 30 % of the peak
- Brain activity relative to the peak (monkey brain, baseline, by 110 min): 50 % of the peak
- Peak concentration of brain radioactivity (mean SUV peak) (monkey whole brain, baseline, n = 3): 2.0 SUV and 2.0 ± 0.1 SUV
- Uptake in the skull (monkey, baseline, blocked by PK11195 and PBR28): No significant uptake; also recorded: low uptake
- BPND of whole brain (monkey, ratio of specific binding to nondisplaceable uptake, n = 3): 7.6 ± 4.3 and 7.6
